Structures can show the parent of a compound that is named as a salt. Where two headings read alike, the source gives them in different places.
Experiments:
Assay type in all cases: cell-based
HIV-1 strain LAI = assay: Cellular anti-HIV assay (MT4/MTT), wild type; conditions: MT4 cells, read-out: WT (pEC50) (converted)
Experimental: The compounds of the present invention were examined for anti-viral activity in a cellular assay. […] The cellular assay was performed according to the following procedure. HIV- or mock-infected MT4 cells were incubated for five days in the presence of various concentrations of the inhibitor. […] Cell viability is measured by measuring the concentration of MTT, a yellow, water soluble tetrazolium dye that is converted to a purple, water insoluble formazan in the mitochondria of living cells only. Upon solubilization of the resulting formazan crystals with isopropanol, the absorbance of the solution is monitored at 540 nm. The values correlate directly to the number of living cells remaining in the culture at the completion of the five-day incubation. The inhibitory activity of the compound was monitored on the virus-infected cells and was expressed as EC50 and EC90. These values represent the amount of the compound required to protect 50% and 90%, respectively, of the cells from the cytopathogenic effect of the virus. […] The selectivity index (SI) (ratio CC50/EC50) is an indication of the selectivity of the anti-HIV activity of the inhibitor. Wherever results are reported as e.g. pEC50 or pCC50 values, the result is expressed as the negative logarithm of the result expressed as EC50 or CC50 respectively.

[1] = Toxicity on mock-infected cells (MTT); conditions: human
Experimental: HIV- or mock-infected MT4 cells were incubated for five days in the presence of various concentrations of the inhibitor. At the end of the incubation period, the replicating virus in the control cultures has killed all HIV-infected cells in the absence of any inhibitor. Cell viability is measured by measuring the concentration of MTT, a yellow, water soluble tetrazolium dye that is converted to a purple, water insoluble formazan in the mitochondria of living cells only. Upon solubilization of the resulting formazan crystals with isopropanol, the absorbance of the solution is monitored at 540 nm. The values correlate directly to the number of living cells remaining in the culture at the completion of the five-day incubation. The inhibitory activity of the compound was monitored on the virus-infected cells and was expressed as EC50 and EC90. These values represent the amount of the compound required to protect 50% and 90%, respectively, of the cells from the cytopathogenic effect of the virus. […] The selectivity index (SI) (ratio CC50/EC50) is an indication of the selectivity of the anti-HIV activity of the inhibitor. Wherever results are reported as e.g. pEC50 or pCC50 values, the result is expressed as the negative logarithm of the result expressed as EC50 or CC50 respectively.

mutant HIV strain E = assay: microbe, parasite or virus in culture; conditions: for fold resistance Strain E: FR=EC50 (mutant strain)/EC50 (HIV-1 strain LAI); for EC50: Human immunodeficiency virus 1, MT4, read-out: pEC50 Strain E, mutant HIV strain E, MT4 cells (converted)
Experimental: (§1) HIV- or mock-infected MT4 cells were incubated for five days in the presence of various concentrations of the inhibitor. […] Cell viability is measured by measuring the concentration of MTT, a yellow, water soluble tetrazolium dye that is converted to a purple, water insoluble formazan in the mitochondria of living cells only. Upon solubilization of the resulting formazan crystals with isopropanol, the absorbance of the solution is monitored at 540 nm. The values correlate directly to the number of living cells remaining in the culture at the completion of the five-day incubation. The inhibitory activity of the compound was monitored on the virus-infected cells and was expressed as EC50 and EC90. These values represent the amount of the compound required to protect 50% and 90%, respectively, of the cells from the cytopathogenic effect of the virus. […] The selectivity index (SI) (ratio CC50/EC50) is an indication of the selectivity of the anti-HIV activity of the inhibitor. Wherever results are reported as e.g. pEC50 or pCC50 values, the result is expressed as the negative logarithm of the result expressed as EC50 or CC50 respectively.

mutant HIV strain B = assay: microbe, parasite or virus in culture; conditions: for fold resistance Strain B: FR=EC50 (mutant strain)/EC50 (HIV-1 strain LAI); for EC50: Human immunodeficiency virus 1, MT4, read-out: pEC50 Strain B, mutant HIV strain B, MT4 cells (converted)
Experimental: as §1

mutant HIV strain D = assay: microbe, parasite or virus in culture; conditions: for fold resistance Strain D: FR=EC50 (mutant strain)/EC50 (HIV-1 strain LAI); for EC50: Human immunodeficiency virus 1, MT4, read-out: pEC50 Strain D, mutant HIV strain D, MT4 cells (converted)
Experimental: as §1

mutant HIV strain F = assay: microbe, parasite or virus in culture; conditions: for fold resistance Strain F: FR=EC50 (mutant strain)/EC50 (HIV-1 strain LAI); for EC50: Human immunodeficiency virus 1, MT4, read-out: pEC50 Strain F, mutant HIV strain F, MT4 cells (converted)
Experimental: as §1

mutant HIV strain A = assay: microbe, parasite or virus in culture; conditions: for fold resistance Strain A: FR=EC50 (mutant strain)/EC50 (HIV-1 strain LAI); for EC50: Human immunodeficiency virus 1, MT4, read-out: pEC50 Strain A, mutant HIV strain A, MT4 cells (converted)
Experimental: as §1

mutant HIV strain C = assay: microbe, parasite or virus in culture; conditions: for fold resistance Strain C: FR=EC50 (mutant strain)/EC50 (HIV-1 strain LAI); for EC50: Human immunodeficiency virus 1, MT4, read-out: pEC50 Strain C, mutant HIV strain C, MT4 cells (converted)
Experimental: as §1

[2] = Human immunodeficiency virus 1, wild type HIV-1 strain LAI
[3] = Human immunodeficiency virus 1, MT4, wild type HIV-1 strain LAI

Row | SMILES | EC50 (HIV-1 strain LAI; [2]) | CC50 at 5 days [1] | fold resistance Strain E (mutant HIV strain E) | EC50 (mutant HIV strain E) | fold resistance Strain B (mutant HIV strain B) | EC50 (mutant HIV strain B) | fold resistance Strain D (mutant HIV strain D) | EC50 (mutant HIV strain D) | fold resistance Strain F (mutant HIV strain F) | EC50 (mutant HIV strain F) | fold resistance Strain A (mutant HIV strain A) | EC50 (mutant HIV strain A) | fold resistance Strain C (mutant HIV strain C) | EC50 (mutant HIV strain C) | further results
1 | CC(C)CN(C[C@@H](O)[C@H](Cc1ccccc1)NC(=O)OCc1cncs1)S(=O)(=O)c1ccc2nc(N)sc2c1 [Compound 3, {(1S,2R)-3-[(2-amino-benzothiazole-6-sulfonyl)-isobutyl-amino]-1-benzyl-2-hydroxypropyl}-carbamic acid thiazol-5-ylmethyl ester] | 0.00457 µM | 74.1 µM | 4.8 | 0.0219 µM | 1.9 | 0.00891 µM | 7.9 | 0.0363 µM | 11.7 | 0.0537 µM | 6.6 | 0.0302 µM | 3.4 | 0.0155 µM | –
2 | CC(C)CN(C[C@@H](O)[C@H](Cc1ccccc1)NC(=O)OC1COC2OCCC12)S(=O)(=O)c1ccc2nc(N(C)C)sc2c1 (stereo partly drawn) [Compound 6, {(1S,2R)-1-benzyl-3-[(2-dimethylamino-benzothiazole-6-sulfonyl)-isobutyl-amino]-2-hydroxy-propyl}-carbamic acid hexahydro-furo[2,3-b]furan-3-yl ester] | 0.00398 µM | > 100 µM | – | – | 32.4 | 0.129 µM | 27.5 | 0.11 µM | 177.8 | 0.708 µM | 50.1 | 0.2 µM | 8.5 | 0.0339 µM | –
3 | CC(C)CN(C[C@@H](O)[C@H](Cc1ccccc1)NC(=O)OCc1ccccc1)S(=O)(=O)c1ccc2nc(N)sc2c1 [Compound 7, {(1S,2R)-3-[(2-amino-benzothiazole-6-sulfonyl)-isobutyl-amino]-1-benzyl-2-hydroxypropyl}-carbamic acid benzyl ester] | 0.00589 µM | 46.8 µM | 7.4 | 0.0437 µM | 5.0 | 0.0295 µM | 20.0 | 0.117 µM | 131.8 | 0.776 µM | 72.4 | 0.427 µM | 5.5 | 0.0324 µM | –
4 | CC(C)CN(C[C@@H](O)[C@H](Cc1ccccc1)NC(=O)OCc1cccnc1)S(=O)(=O)c1ccc2nc(N)sc2c1 [Compound 9, {(1S,2R)-3-[(2-amino-benzothiazole-6-sulfonyl)-isobutyl-amino]-1-benzyl-2-hydroxypropyl}-carbamic acid pyridin-3-ylmethyl ester] | 0.0049 µM | 51.3 µM | 4.9 | 0.024 µM | 1.1 | 0.00562 µM | 8.5 | 0.0417 µM | – | – | 53.7 | 0.263 µM | 1000.0 | 4.9 µM | –
5 | CC(C)CN(C[C@@H](O)[C@H](Cc1ccccc1)NC(=O)OC1CCOC1)S(=O)(=O)c1ccc2nc(N)sc2c1 (stereo partly drawn) [Compound 12, {(1S,2R)-3-[(2-amino-benzothiazole-6-sulfonyl)-isobutyl-amino]-1-benzyl-2-hydroxypropyl}-carbamic acid tetrahydro-furan-3-yl ester] | 0.00427 µM | > 100 µM | 1.8 | 0.00776 µM | 1.8 | 0.00759 µM | 6.2 | 0.0263 µM | – | – | 53.7 | 0.229 µM | 44.7 | 0.191 µM | –
6 | Cc1ccccc1C(=O)N[C@@H](Cc1ccccc1)[C@H](O)CN(CC(C)C)S(=O)(=O)c1ccc2nc(N)sc2c1 [Compound 14, N-{(1S,2R)-3-[(2-amino-benzothiazole-6-sulfonyl)-isobutyl-amino]-1-benzyl-2-hydroxypropyl}-2-methyl-benzamide] | 0.0038 µM | 46.8 µM | 7.9 | 0.0302 µM | 7.1 | 0.0269 µM | 10.5 | 0.0398 µM | – | – | 234.4 | 0.891 µM | 46.8 | 0.178 µM | –
7 | CNc1nc2ccc(S(=O)(=O)N(CC(C)C)C[C@@H](O)[C@H](Cc3ccccc3)NC(=O)OCc3cncs3)cc2s1.O=C(O)C(F)(F)F [Compound 19, {(1S,2R)-1-benzyl-2-hydroxy-3-[isobutyl-(2-methylamino-benzothiazole-6-sulfonyl)-amino]-propyl}-carbamic acid thiazol-5-ylmethyl ester trifluoroacetate] | – | – | – | – | – | – | – | – | – | – | – | – | – | – | EC50 (HIV-1 strain LAI; [3]): 0.00309 µM; pEC50 Strain E (mutant HIV strain E; mutant HIV strain E, MT4 cells): 7.90; pEC50 Strain B (mutant HIV strain B; mutant HIV strain B, MT4 cells): 7.80; pEC50 Strain D (mutant HIV strain D; mutant HIV strain D, MT4 cells): 7.43; pEC50 Strain F (mutant HIV strain F; mutant HIV strain F, MT4 cells): 6.80; pEC50 Strain A (mutant HIV strain A; mutant HIV strain A, MT4 cells): 7.36; pEC50 Strain C (mutant HIV strain C; mutant HIV strain C, MT4 cells): 7.88
8 | CNc1nc2ccc(S(=O)(=O)N(CC(C)C)C[C@@H](O)[C@H](Cc3ccccc3)NC(=O)c3cccc(O)c3C)cc2s1 [Compound 23, N-{(1S,2R)-1-benzyl-2-hydroxy-3-[isobutyl-(2-methylamino-benzothiazole-6-sulfonyl)-amino]-propyl}-3-hydroxy-2-methyl-benzamide trifluoroacetate] | – | 69.2 µM | – | 0.00724 µM | – | 0.00955 µM | – | 0.0214 µM | – | – | – | 0.288 µM | – | 0.00871 µM | EC50 (HIV-1 strain LAI; [3]): 0.00457 µM
9 | CNc1nc2ccc(S(=O)(=O)N(CC(C)C)C[C@@H](O)[C@H](Cc3ccccc3)NC(=O)COc3c(C)cc(N)cc3C)cc2s1 [Compound 26, 2-(4-amino-2,6-dimethyl-phenoxy)-N-{(1S,2R)-1-benzyl-2-hydroxy-3-[isobutyl-(2-methylamino-benzothiazole-6-sulfonyl)-amino]-propyl}-acetamide] | 0.00269 µM | – | 2.3 | 0.00617 µM | 1.5 | 0.00398 µM | 3.1 | 0.00832 µM | 20.9 | 0.0562 µM | 11.2 | 0.0302 µM | 2.7 | 0.00724 µM | –

Reference: patent US20050267156A1, “Broadspectrum 2-amino-benzothiazole sulfonamide hiv protease inhibitors” (Tibotec Pharmaceuticals Ltd., priority 2002, published 2005)
